Reference: patent publication US20230134859A1, “METHOD FOR SCREENING FOR, METHOD FOR PRODUCING, AND METHOD FOR DESIGNING DRUG ACTIVE INGREDIENTS” (SKY PHARMA CO., LTD., priority 2020, published 2023)

Tests used:
Type in all cases: in vivo
cardiomyocytes = assay: Test Example 8: enhancement of myocardium in zebrafish embryo (nkx2.5 in situ hybridization, blood cells pumped per heartbeat); conditions: test compounds = Compounds 1 to 7; 100 μM injected at heart primordium 10 h after fertilization; vs control; n=80
Procedure: Zebrafish embryos at 10 hours after fertilization were held with the dorsal side of the head up on a coffin (plastic plate with V-shaped grooves for holding), and a glass capillary was inserted into a midline between head and ear vesicles (heart primordium). Nitrogen gas pressure (15 picosiemens) was applied for 15 to 45 milliseconds and injected into the gap just below the neural tube. The test compound concentration was 100 μM/E3, and 0.025% (final concentration) phenol red was mixed as a tracer of the injection solution. The injection was performed in pulses with a foot pedal and continued until phenol red was distributed in an elliptical shape with a major axis of 200 μm from the insertion point. After injection, embryos were cultured at 28.5° C. for 14 hours in E3. After chorions were removed with tweezers, the embryos were fixed with 4% paraformaldehyde/PBS at normal temperature for 1 hour, and in situ hybridization was performed overnight at 65° C. in the presence of a DIG probe of nk×2.5 as a cardiac muscle marker according to a conventional method. After washing, cardiomyocytes were stained by an alkali phosphatase color reaction using an anti-DIG antibody. The stained embryos were washed with PBS, embedded in 75% glycerin/PBS and localized, and then microscopically photographed with incident light. The number of tested individuals was unified with n=80 for each compound.
In addition, the zebrafish embryos injected with the test compound by the above-described method were cultured at 28.5° C. until 48 hours after fertilization, embedded in 3% methyl cellulose/E3, and a moving image was photographed. The number of blood cells pumped in one heartbeat in time-lapse was counted n=15 and compared to Ringer injected individuals.

[1] = system: sox1α, sox2, sox3, and her6; assay: Test Example 1: quantitative PCR of neural stem cell markers in brains of treated zebrafish; conditions: brain of treated zebrafish individuals; ΔΔCt; vs control
Procedure: Moreover, the brains of the treated zebrafish individuals were dissected and washed with sterile distilled water, and then crushed by pipetting or 1 ml syringe suction discharge with 18 G to 24 G needles in 500 μl of Sepasol-RNA I Super G (Nacalai Tesque). A deproteinization operation was conducted once by equivalent phenol/chloroform treatment and once by chloroform treatment, and the supernatant was subjected to RNA purification using an RNA purification column (RNeasy Plus Mini Kit, Qiagen). The elute was reverse-transcribed using a mixed primer of random hexamer and oligo-dT (ReverTra Ace qPCR Kit, TOYOBO) at 37° C. for 15 minutes and 98° C. for 5 minutes, and quantitative PCR of expression levels of sox1α, sox2, sox3, and her6, which are markers of neural stem cells, was performed. Quantitative PCR was performed with SYBER Green Realtime PCR Master Mix (TOYOBO). For the PCR reaction, ABI PRISM 7700 or LightCycler from Roche Diagnostics K.K. was used. Quantification was performed in 3 wells per identical sample (n=3). The obtained data was comparatively quantified by a ΔΔCt method using a normalizer (β-actin, GAPDH, 18S, or the like). In order to confirm that the quantitative reaction was reliable, it was confirmed that the amplification product was in a band by agarose electrophoresis.

pancreatic β cells = assay: Test Example 9: pancreatic β cells and insulin in transgenic zebrafish embryos; conditions: vs control; for production amount of insulin by β cells (immunostaining with anti-insulin antibody, average fluorescence intensity): 100 nM or 5 nM, 20 h after injection, n=10; for production amount of insulin by β cells (in situ hybridization, ins probe): 100 nM, 14 h after injection, n=100
Procedure: Transgenic zebrafish expressing pancreatic β-cell GFP
Transgenic zebrafish embryos expressing pancreatic β-cell GFP at 10 hours after fertilization were held with the dorsal side of the head up on a coffin, and a glass capillary was inserted from the dorsal side into a gap just below the midline neural tube at about 2 times the distance between the rostral end and the ear vesicles to the caudal side (pancreatic primordium). A nitrogen gas pressure (15 picosiemens) was applied for 15 to 45 milliseconds, and the test compound was injected. The concentration of the test compound was 100 nM/E3, and 0.025% (final concentration) phenol red was mixed as a tracer of the infusion solution. The injection was performed in pulses with a foot pedal and continued until phenol red was distributed in an elliptical shape with a major axis of 200 μm from the insertion point.
The test compound (100 nM) was injected on a coffin in transgenic zebrafish embryos expressing pancreatic β-cell GFP at 10 hours after fertilization. After injection, embryos were cultured in E3 at 28.5° C. for 14 hours. After chorions were removed with tweezers, the embryos were fixed with 4% paraformaldehyde/PBS at room temperature for 1 hour, and in situ hybridization was performed overnight at 65° C. in the presence of a DIG probe of insulin (ins) according to a conventional method. After washing, β cells were stained by an alkali phosphatase color reaction using an anti-DIG antibody. After staining, the embryos were washed with PBS, embedded in 75% glycerin/PBS and localized, and then microscopically photographed with incident light. The number of test individuals was unified with n=100 for each test compound (FIG. 23).
Transgenic zebrafish embryos expressing pancreatic β-cell GFP at 10 hours after fertilization were injected with the test compound (100 nM or 5 nM) on the coffin. After injection, embryos were cultured in E3 at 28.5° C. for 20 hours in the presence of 0.2 mM phenylthiourea (PTU). After chorions were removed with tweezers, the embryos were fixed with 4% paraformaldehyde/PBS at normal temperature for 1 hour, immunohistochemically reacted with an anti-insulin antibody according to a conventional method, and then reacted with an Alexa fluor 488 anti-mouse IgG secondary antibody. The reacted embryos were washed with PBS, embedded in 75% glycerin/PBS and localized, and then microscopically photographed with 488 nm excitation light (FIG. 24). The number of tested individuals was unified with n=10 for each compound. The insulin amount was quantified by measuring the average fluorescence intensity in a circle with a radius of 100 μm centered on the fluorescence point (FIG. 25).

Purkinje cells = assay: Test Example 6: increase in Purkinje cells of adult mouse after injection into E11.5 fetal ventricle; conditions: test compounds = Compounds 1 to 7; 100 μM injected into E11.5 fetal ventricle, counted in adult mice; vs control; N=10
Procedure: A solution prepared by dissolving 100 μM of the test compound in physiological saline was injected into E11.5 mouse fetal ventricle. Brains of adult mouse individuals were fixed, and slice sections of cerebellar Purkinje cell layers were immunostained with an anti-d-Calbindin antibody, which is a marker of cell bodies and neurites of Purkinje cells. After staining, the number of Purkinje cells was counted, and the average value thereof was calculated.
As a control experiment (control), a similar experiment was performed using physiological saline containing no test compound.
The number of samples is 10 for each of Compounds 1 to 7 and control (N=10).

[2] = system: mesencephalic neural stem cells; assay: Test Example 7: increase in neural stem cells of adult zebrafish by intracerebroventricular administration; conditions: test compounds = Compounds 1 to 7; 100 μM into ventricle of one-month-old fish, 1 week; E3 Ringer or lipofection; vs control
Procedure: Reporter gene transgenic line of zebrafish specifically expressing green fluorescent protein in mesencephalic neural stem cells
A solution (0.1% DMSO) in which the test compound (100 μM) was dissolved in E3 Ringer (zebrafish physiological saline) was prepared. Mesencephalic neural stem cells were microscopically injected into the ventricles of one-month-old adult fish individuals labeled with green fluorescent protein, and cultured at 28.5° C. for 1 week.
As a control experiment (control), only E3 Ringer (0.1% DMSO plus 0.025% phenol red) was administered into the ventricle in the same volume. […]
Specifically, the solid cultured for 7 days after injection was held in a 3% methylcellulose/E3 Ringer/0.02% tricaine solution on a slide glass, and then GFP was emitted with 488 nm excitation light and imaged by a CCD camera. In addition, the average fluorescence brightness of the green fluorescent protein in a rectangle with a width of 100 μm and a height of 50 μm with the rostral end up around the fluorescence expression part was measured with a brightness analysis software. […]
In order to inhibit synthesis of melanin pigment that interferes with observation with a fluorescence microscope, 0.2 mM phenylthiourea (PTU) had been added to the culture solution.

| SMILES | amount of cardiomyocytes (in situ hybridization, nkx2.5) (cardiomyocytes) | expression levels of sox1α, sox2, sox3, and her6 (quantitative PCR) [1] | production amount of insulin by β cells (immunostaining with anti-insulin antibody, average fluorescence intensity) (pancreatic β cells) | production amount of insulin by β cells (in situ hybridization, ins probe) (pancreatic β cells) | number of Purkinje cells in the cerebellar Purkinje cell layers (Purkinje cells) | fluorescence indicating the presence of mesencephalic neural stem cells in the brain of adult zebrafish [2] |
| --- | --- | --- | --- | --- | --- | --- |
| Cc1cccc(-c2n[nH]cc2-c2ccnc3ccccc23)n1 [Compound 2, 4-[3-(6-Methylpyridin-2-yl)-1H-pyrazol-4-yl]quinoline] | increase in the amount of cardiomyocytes was observed | significant increase in expression levels | significantly increased as compared with the control individual | significantly increased as compared with the control individual | significantly higher than that of the control | – |
| O=C(O)CCC(=O)Nc1ccc(Br)cn1 [Compound 5, 4-[(5-Bromopyridin-2-yl)amino]-4-oxobutyric acid] | increase in the amount of cardiomyocytes was observed | – | – | significantly increased as compared with the control individual | significantly higher than that of the control | strongly detected as compared with the control |
| COc1cc(N2CCC(N(C)C)CC2)ccc1Nc1ncc(Cl)c(Nc2ccccc2P(C)(C)=O)n1 [Compound 6, 5-Chloro-2-N-{4-[4-(dimethylamino)piperidin-1-yl]-2-methoxyphenyl}-4-N-[2-(dimethylphosphoryl)phenyl]pyrimidine-2,4-diamine] | – | – | significantly increased as compared with the control individual | significantly increased as compared with the control individual | – | – |
